Where two headings read alike, the source gives them in different places.

The target of one data set is T1, Kv1.3 potassium channel (Homo sapiens, UniProt P22001).
T1 construct: expressed in transfected cells
Nature of the data set: Kv1.3 potassium channel blocker activity, automated whole-cell patch clamp (Patchliner). It is filed as cell-based. The note with it: CHO-K1 cells stably expressing Kv1.3; whole cell current inhibition; read-out: Kvl.3 IC50. As for the experimental part:
This assay is used to evaluate the disclosed compounds' activities as Kv1.3 potassium channel blockers.
CHO-K1 cells stably expressing Kv1.3 were grown in DMEM containing 10% heat-inactivated FBS, 1 mM Sodium Pyruvate, 2 mM L-Glutamine and G418 (500 μg/ml).
(§1) All compounds were dissolved in DMSO at 30 mM.
The currents were evoked by applying 100 ms depolarizing pulses from −90 mV (holding potential) to +40 mV were applied with 0.1 Hz frequency. […] 10 second breaks were used between pulse trains (see Table A below).
Data were sampled at 10 kHz without filtering. Passive leak currents were subtracted online using a P/4 procedure (HEKA Elektronik Dr. Schulze GmbH). […] Total compound incubation time before the next pulse train was not longer than 10 seconds. Peak current inhibition was observed during compound equilibration.

A further data set has as its target T2, hERG channel (Homo sapiens, UniProt Q12809).
T2 construct: expressed in transfected cells
Nature of the data set: hERG electrophysiology, automated whole-cell patch clamp (Patchliner). Format: cell-based. As to the method:
as §1
The pulse frequency was 0.3 Hz.
Data were sampled at 10 kHz without filtering.

[1] abbreviates: CHO-K1 cells stably expressing hERG, whole cell current inhibition, read-out: hERG IC50.

T2 sequence (Q12809 whole entry): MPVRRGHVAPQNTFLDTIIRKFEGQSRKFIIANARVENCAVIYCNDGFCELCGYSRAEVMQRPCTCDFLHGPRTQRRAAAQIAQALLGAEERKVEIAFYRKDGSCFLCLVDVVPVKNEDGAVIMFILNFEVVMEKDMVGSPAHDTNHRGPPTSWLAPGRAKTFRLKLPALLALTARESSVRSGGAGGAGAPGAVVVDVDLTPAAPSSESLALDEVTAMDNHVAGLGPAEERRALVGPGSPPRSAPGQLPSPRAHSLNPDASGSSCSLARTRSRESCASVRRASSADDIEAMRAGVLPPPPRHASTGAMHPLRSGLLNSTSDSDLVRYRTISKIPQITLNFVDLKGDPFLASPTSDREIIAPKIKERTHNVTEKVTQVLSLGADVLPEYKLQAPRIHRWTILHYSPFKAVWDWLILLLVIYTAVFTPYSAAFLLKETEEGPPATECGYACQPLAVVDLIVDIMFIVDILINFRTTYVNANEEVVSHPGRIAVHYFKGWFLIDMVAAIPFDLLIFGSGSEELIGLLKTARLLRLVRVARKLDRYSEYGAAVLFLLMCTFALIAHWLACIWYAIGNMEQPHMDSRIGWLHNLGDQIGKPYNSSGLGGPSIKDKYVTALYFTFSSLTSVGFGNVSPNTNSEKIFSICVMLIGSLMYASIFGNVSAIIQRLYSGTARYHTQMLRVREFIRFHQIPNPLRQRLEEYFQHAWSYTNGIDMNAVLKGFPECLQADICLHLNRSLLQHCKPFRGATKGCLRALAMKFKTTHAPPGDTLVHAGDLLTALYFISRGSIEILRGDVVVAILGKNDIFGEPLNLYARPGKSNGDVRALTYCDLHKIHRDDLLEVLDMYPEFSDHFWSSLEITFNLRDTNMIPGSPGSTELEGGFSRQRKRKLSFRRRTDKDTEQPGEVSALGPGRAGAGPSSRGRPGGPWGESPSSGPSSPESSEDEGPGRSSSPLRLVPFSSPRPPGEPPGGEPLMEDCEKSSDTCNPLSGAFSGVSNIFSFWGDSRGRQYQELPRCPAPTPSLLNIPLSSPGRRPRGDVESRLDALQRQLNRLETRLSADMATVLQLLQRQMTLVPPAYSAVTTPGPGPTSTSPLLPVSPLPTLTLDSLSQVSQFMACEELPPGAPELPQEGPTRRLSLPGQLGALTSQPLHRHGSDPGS
T1 sequence (P22001 whole entry): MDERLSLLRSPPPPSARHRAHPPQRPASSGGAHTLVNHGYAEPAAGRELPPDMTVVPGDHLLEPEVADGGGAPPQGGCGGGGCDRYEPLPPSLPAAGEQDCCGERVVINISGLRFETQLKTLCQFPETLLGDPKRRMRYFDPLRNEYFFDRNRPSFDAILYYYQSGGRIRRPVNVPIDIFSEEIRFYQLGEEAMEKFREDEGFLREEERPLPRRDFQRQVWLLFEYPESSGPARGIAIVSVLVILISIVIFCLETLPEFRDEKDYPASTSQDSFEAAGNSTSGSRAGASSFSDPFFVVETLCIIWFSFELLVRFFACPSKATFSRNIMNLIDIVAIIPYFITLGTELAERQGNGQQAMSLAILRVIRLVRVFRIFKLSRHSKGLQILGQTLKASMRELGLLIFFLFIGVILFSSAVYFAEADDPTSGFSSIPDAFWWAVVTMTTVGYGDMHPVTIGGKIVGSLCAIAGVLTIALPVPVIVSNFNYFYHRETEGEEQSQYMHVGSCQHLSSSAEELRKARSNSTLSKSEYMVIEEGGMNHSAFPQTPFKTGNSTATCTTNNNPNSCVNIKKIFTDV

For the compound `Oc1cc(Cl)c(Cl)cc1CN1CCc2[nH]ncc2C1` [Compound 25, 4,5-dichloro-2-((6,7-dihydro-1H-pyrazolo[4,3-c]pyridin-5(4H)-yl)methyl)phenol], the IC50 was less than 10 µM at Kv1.3 potassium channel and less than 30 µM at hERG channel (setting [1]).
The like results for `Oc1cc(Cl)c(Cl)cc1CN1CCC2(CC1)OCCC2O` (centres unmarked) [Compound 26, 8-(4,5-dichloro-2-hydroxybenzyl)-1-oxa-8-azaspiro[4.5]decan-4-ol] were, in that order, less than 1 µM and less than 30 µM.
The like results for `OCC1CCCN(Cc2cc(Cl)c(Cl)cc2O)CC1` (centres unmarked) [Compound 27, 4,5-dichloro-2-[[4-(hydroxymethyl)azepan-1-yl]methyl]phenol] were, in that order, less than 1 µM and less than 30 µM.
The like results for `Oc1cc(Cl)c(Cl)cc1CN1CCC(c2ccn[nH]2)CC1` [Compound 30, 2-((4-(1H-pyrazol-5-yl)piperidin-1-yl)methyl)-4,5-dichlorophenol] were, in that order, less than 10 µM and less than 30 µM.
Consider `OCC1CN(Cc2cc(Cl)c(Cl)cc2O)C1` [Compound 32, 4,5-dichloro-2-[[3-(hydroxymethyl)azetidin-1-yl]methyl]phenol], for which the results for the IC50 at Kv1.3 potassium channel and on hERG channel (setting [1]) were less than 10 µM and less than 30 µM, respectively.
The like results for `OCCC1CCN(Cc2cc(Cl)c(Cl)cc2O)CC1` [Compound 39, 4,5-dichloro-2-((4-(2-hydroxyethyl)piperidin-1-yl)methyl)phenol] were, in that order, less than 10 µM and less than 30 µM.
Regarding `Oc1cc(Cl)c(Cl)cc1CN1CCC2(CC1)COCC2O` (centres unmarked) [Compound 40], the IC50 on Kv1.3 potassium channel is less than 1 µM; at hERG channel it was less than 30 µM.
For the compound `Oc1cc(Cl)c(Cl)cc1CN1CCC(C2COC2)CC1` [Compound 42, 4,5-dichloro-2-[[4-(oxetan-3-yl)piperidin-1-yl]methyl]phenol], the figures for the IC50 at Kv1.3 potassium channel and at hERG channel (setting [1]) were less than 10 µM and less than 30 µM, respectively.
In the same order, the values of `OCC1CCN(Cc2cc(Cl)c(Cl)cc2O)C1` (centres unmarked) [Compound 44, 4,5-dichloro-2-[[3-(hydroxymethyl)pyrrolidin-1-yl]methyl]phenol] are less than 10 µM and less than 30 µM.
The like results for `OCC1CCCN(Cc2cc(Cl)c(Cl)cc2O)C1` (centres unmarked) [Compound 45, 4,5-dichloro-2-[[3-(hydroxymethyl)piperidin-1-yl]methyl]phenol] were, in that order, less than 10 µM and less than 30 µM.
As to `OCC1(O)CCN(Cc2cc(Cl)c(Cl)cc2O)CC1` [Compound 48, 1-[(4,5-dichloro-2-hydroxyphenyl)methyl]-4-(hydroxymethyl)piperidin-4-ol], the IC50 on Kv1.3 potassium channel was less than 10 µM; on hERG channel (setting [1]), less than 30 µM.
With `CC(=O)N1CCN(Cc2cc(Cl)c(Cl)cc2O)CC1` [Compound 49, 1-[4-[(4,5-dichloro-2-hydroxyphenyl)methyl]piperazin-1-yl]ethan-1-one], the figures for the half-inhibitory concentration (IC50) on Kv1.3 potassium channel and at hERG channel (setting [1]) were less than 10 µM and less than 30 µM, respectively.
The like results for `CC(C)(O)C1CCN(Cc2cc(Cl)c(Cl)cc2O)CC1` [Compound 50, 4,5-dichloro-2-[[4-(2-hydroxypropan-2-yl)piperidin-1-yl]methyl]phenol] were, in that order, less than 10 µM and less than 30 µM.
On to `Oc1cc(Cl)c(Cl)cc1CN1CCC2(CC1)COC2` [Compound 51, 4,5-dichloro-2-[2-oxa-7-azaspiro [3.5]nonan-7-ylmethyl] phenol], for which the IC50 on Kv1.3 potassium channel was less than 10 µM; on hERG channel (setting [1]), less than 30 µM.
Regarding `OCC1CN(Cc2cc(Cl)c(Cl)cc2O)CCO1` (centres unmarked) [Compound 52, 4,5-dichloro-2-[[2-(hydroxymethyl)morpholin-4-yl]methyl]phenol], the IC50 at Kv1.3 potassium channel is less than 10 µM; at hERG channel (human, pH 7.4, CHO-K1 cells stably expressing hERG, whole cell current inhibition, read-out: hERG IC50), 30 µM.
As for `CC1(CO)CCN(Cc2cc(Cl)c(Cl)cc2O)CC1` [Compound 53, 4,5-dichloro-2-[[4-(hydroxymethyl)-4-methylpiperidin-1-yl]methyl] phenol], the figures for the IC50 on Kv1.3 potassium channel and at hERG channel (setting [1]) were less than 10 µM and less than 30 µM, respectively.

For orientation: IC50 means the point on the concentration scale where inhibition reaches its midpoint.

For the origin of these results see patent US20220411367A1, “ARYLMETHYLENE HETEROCYCLIC COMPOUNDS AS KV1.3 POTASSIUM SHAKER CHANNEL BLOCKERS” (D. E. Shaw Research, LLC, priority 2019, published 2022).
